Data on eleven molecules can be found in ChEMBL document CHEMBL1127535, “Molecular similarity, quantitative chirality, and QSAR for chiral drugs” (J Med Chem, 1994).

Test [1] has as its target Sigma non-opioid intracellular receptor 1 (Rattus norvegicus) (UniProt Q9R0C9). The test is described as follows: Displacement of (+)-3PPP from sigma receptor of rat brain membrane.
In test [2] the target is D(2) dopamine receptor (Rattus norvegicus) (UniProt P61169). Put plainly: Displacement of spiperone from dopamine receptor D2 of rat brain membrane.
D(2) dopamine receptor (Rattus norvegicus), sequence (P61169 whole entry): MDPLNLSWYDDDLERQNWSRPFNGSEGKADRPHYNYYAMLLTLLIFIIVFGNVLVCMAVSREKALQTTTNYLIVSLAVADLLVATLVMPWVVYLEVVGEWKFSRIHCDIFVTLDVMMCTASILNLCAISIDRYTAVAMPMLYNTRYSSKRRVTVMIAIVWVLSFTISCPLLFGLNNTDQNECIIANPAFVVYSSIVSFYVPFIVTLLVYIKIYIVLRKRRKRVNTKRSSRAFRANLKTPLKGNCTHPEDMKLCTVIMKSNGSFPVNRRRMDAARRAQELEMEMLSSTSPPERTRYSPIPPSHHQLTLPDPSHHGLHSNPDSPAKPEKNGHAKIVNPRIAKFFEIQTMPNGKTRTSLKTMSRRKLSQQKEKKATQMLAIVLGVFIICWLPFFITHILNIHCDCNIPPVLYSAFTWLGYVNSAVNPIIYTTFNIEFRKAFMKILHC

Sigma non-opioid intracellular receptor 1 (Rattus norvegicus), sequence (Q9R0C9 whole entry): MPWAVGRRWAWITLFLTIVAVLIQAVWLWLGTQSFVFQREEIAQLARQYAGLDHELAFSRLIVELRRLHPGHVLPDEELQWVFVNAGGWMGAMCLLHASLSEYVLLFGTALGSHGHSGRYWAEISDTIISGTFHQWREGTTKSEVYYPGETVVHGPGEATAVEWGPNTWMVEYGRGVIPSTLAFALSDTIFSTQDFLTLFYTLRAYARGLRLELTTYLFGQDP

In the case of `CC(C)N1CCC[C@@H](c2cccc(O)c2)C1`, the values for the Log IC50 in test [1] and in test [2] were 0.68 µM and 0.45 µM, respectively. For `CCc1ccc(N2CCC[C@H](c3cccc(O)c3)C2)cc1`, in that order: 2.1 µM and 0.09 µM. As for `CCCN1CCC[C@@H](c2cccc(O)c2)C1`, the Log IC50 in test [1] came to 0.81 µM. Regarding `Oc1cccc([C@@H]2CCCNC2)c1`, the Log IC50 in test [1] is 1.19 µM; in test [2], 0.24 µM. For `Oc1cccc([C@H]2CCCNC2)c1`, in that order: 0.66 µM and 0.36 µM. For `CCc1ccc(N2CCC[C@@H](c3cccc(O)c3)C2)cc1`, in that order: 1.8 µM and 1.36 µM. For `CC(C)N1CCC[C@H](c2cccc(O)c2)C1`, in that order: 0.61 µM and 1.08 µM. In turn, `CCCN1CCC[C@H](c2cccc(O)c2)C1` returned a Log IC50 in test [1] of 1.52 µM. Regarding `CN1CCC[C@H](c2cccc(O)c2)C1`, the Log IC50 in test [1] is 0.43 µM; in test [2] it was 0.61 µM. For `CCCCN1CCC[C@@H](c2cccc(O)c2)C1`, in that order: 1.51 µM and 0.56 µM. For `CCCCN1CCC[C@H](c2cccc(O)c2)C1`, in that order: 2.05 µM and 0.43 µM.
